Results: patent US12479886B2, “Inhibitors of IL-15 and their use in treating autoimmune/inflammatory disorders” (University of Houston System, priority 2019, dated 2025)
Bridge positions count the residues as written; N and C are the ends. Square brackets hold non-standard residues; d marks the D form. Peptide text beside a SMILES is read from it. I, II: the chains in the order shown. N(4-MeOBn)Gly = COc1ccc(CNCC(=O)O)cc1; Nleu = CC(C)CNCC(=O)O; Nlys = NCCCCNCC(=O)O; Nme = COCCNCC(=O)O

Columns and labels:
IL-15 = experiment: CTLL-2 proliferation assay (WST-1); assay type: cell-based, murine
Experimental: (§1) FIGS. 7A-C. IFRA3Q1 inhibits the IL-15 activity. To determine if IFRA3 and its derivatives can regulate the function of IL-15, the inventors performed CTLL-2 proliferation assay. The proliferation of murine T cell line CTLL-2 depends on the presence and activity of IL-15. CTLL-2 cells were seeded into 96-well plates and treated with IL-15 in the presence or absence of IFRA3D1, IFRA3T1, or IFRA3Q1 at indicated concentrations for 72 hours. CTLL-2 cell proliferation was measured by WST-1 assay.
as §1, with “To determine” for “FIGS. 7A-C. IFRA3Q1 inhibits the IL-15 activity. To determine”, “WST-1 assay. […] IFRA3 and its derivatives had no effects on cell proliferation by themselves.” for “WST-1 assay.”

[1] = biological target: T1, IL-15 receptor a (IL15RA) (Homo sapiens, UniProt Q13261); experiment: in vitro pull-down assay with peptoid-conjugated beads and HeLa cell lysates, Coomassie staining and western blot; assay type: binding; settings: beads conjugated with compound, 4° C. overnight; band identity confirmed by western blot
T1 construct: Cell lysates from IL-15RA positive HeLa cells (expressing IL15RA) or IL-15RA negative HeLa cells (transfected with IL15RA siRNA to knock down IL15RA); endogenous in cells; host or cells: HeLa
T1 sequence (Q13261 31-267): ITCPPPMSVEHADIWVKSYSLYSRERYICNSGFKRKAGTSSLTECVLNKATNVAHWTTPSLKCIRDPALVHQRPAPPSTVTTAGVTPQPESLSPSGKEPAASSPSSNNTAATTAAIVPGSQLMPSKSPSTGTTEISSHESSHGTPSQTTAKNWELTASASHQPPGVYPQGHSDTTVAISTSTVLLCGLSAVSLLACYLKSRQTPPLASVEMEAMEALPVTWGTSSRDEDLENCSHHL
Experimental: FIGS. 2A-B. Confirmation of the binding of IFRA3 to IL-15 receptor a subunit. […] Cell lysates from IL-15RA positive HeLa cells (expressing IL15RA) or IL-15RA negative HeLa cells (transfected with IL15RA siRNA to knock down IL15RA) were incubated with beads conjugated with IFRA1, or IFRA2, or IFRA3 at 4° C. overnight. The beads were then washed with RIPA buffer for 3 times, and the binding proteins were eluted with 1% SDS. The yielded lysates were then applied onto 12% SDS-PAGE gel and subjected to Coomassie blue staining. (FIG. 2B) Protein in the gel was transferred to membrane and identified by western blotting analysis with antibody against IL-15RA.
Cell lysates from IL-15RA positive HeLa cells (expressing IL15RA) or IL-15RA negative HeLa cells (transfected with IL15RA siRNA to knock down IL15RA) were incubated with beads conjugated with IFRA1, or IFRA2, or IFRA3 at 4° C. overnight. The beads were then washed with RIPA buffer for 3 times, and the binding proteins were eluted with 1% SDS. The yielded lysates were then applied onto 12% SDS-PAGE gel and subjected to Coomassie blue staining. Protein in the gel was transferred to membrane and identified by western blotting analysis with antibody against IL-15RA. […] Western blot results confirmed the identity of the protein band as IL15RA. Thus, the data support that IFRA3 can bind to IL15RA.

IL-15 Rα = biological target: T2, IL-15 Rα (Homo sapiens, UniProt Q13261); experiment: on-bead two-color (OBTC) screening and validation with IL-15Rα expressing and non-expressing HeLa cells; assay type: cell-based
T2 construct: Cell lysates from IL-15RA positive HeLa cells (expressing IL15RA) or IL-15RA negative HeLa cells (transfected with IL15RA siRNA to knock down IL15RA); endogenous in cells; host or cells: HeLa
T2 sequence (Q13261 31-267): as above
Experimental: FIGS. 1A-C. Discovery of the IL-15 receptor a subunit-binding compound IFRA3 through OBTC screening of a peptoid library. To identify compounds that can bind to IL-15 receptor, the inventors performed an on-bead two-color (OBTC) screening experiment. HeLa cells expressing IL-15 Rα were stained with red Qdot® […] nanocrystals and HeLa cells not expressing IL-15 Rα were stained with green Qdot® […] nanocrystals. One million green cells and one million red cells were mixed and incubated for 1 hour with 50,000 peptoid compound library beads containing one-compound on one bead at 23° C. Beads that bind to only red cells but not green cells were isolated under fluorescent microscope and the compound attached to the bead was identified by mass spectrometry. (FIG. 1A) Illustration of the OBTC screening mechanism. (FIG. 1B) One example of the bead that binds only the red cells. (FIG. 1C) The chemical structure of IFRA3, one of the three hits discovered in this screening.
FIG. 3. Validation of the binding of IFRA3 to IL-15 receptor a subunit using OBTC. The compound IFRA3 was resynthesized on the beads and were incubated with IL-15 RA expressing HeLa cells (red stained) and IL-15RA negative HeLa cells (green stained) individually as well as 1:1 mixture of red and green cells. […]

binding to IL-15 receptor subunit a in OBTC screen (hit) (IL-15 Rα; peptoid library beads, red IL-15Rα+ and green IL-15Rα- HeLa cells, 1 hour, 23° C.) | SMILES | inhibition of IL-15-stimulated proliferation of CTLL-2 cells (IL-15; with IL-15, 72 hours, WST-1) | pull-down of IL15RA from cell lysates [1] | effect on cell proliferation by themselves (IL-15; CTLL-2 cells, compound alone without IL-15) | binding of cells to beads with resynthesized compound (OBTC validation) (IL-15 Rα; IL-15RA expressing (red) and negative (green) HeLa cells, individually and as 1:1 mixture)
 | COCCN(CC(=O)NC(CCCCN)C(=O)NC(CCSC)C(=O)NCCCCC(NC(=O)C(CCCCNC(=O)C(CCSC)NC(=O)C(CCCCN)NC(=O)CN(CCOC)C(=O)CN(CCCCN)C(=O)CN(CCCCN)C(=O)CN(CCOC)C(=O)CN(Cc1ccc(OC)cc1)C(=O)CNCC(C)C)NC(=O)C(CCSC)NC(=O)C(CCCCN)NC(=O)CN(CCOC)C(=O)CN(CCCCN)C(=O)CN(CCCCN)C(=O)CN(CCOC)C(=O)CN(Cc1ccc(OC)cc1)C(=O)CNCC(C)C)C(N)=O)C(=O)CN(CCCCN)C(=O)CN(CCCCN)C(=O)CN(CCOC)C(=O)CN(Cc1ccc(OC)cc1)C(=O)CNCC(C)C (centres unmarked) [IFRA3T1] (I: H-[Nleu][N(4-MeOBn)Gly][Nme][Nlys][Nlys][Nme]KMKK-NH2 / II: H-[Nleu][N(4-MeOBn)Gly][Nme][Nlys][Nlys][Nme]KM / III: H-[Nleu][N(4-MeOBn)Gly][Nme][Nlys][Nlys][Nme]KM; amide I:9-II:C, I:10-III:C; configuration not given here) | less effects |  |  | 
binds to the IL-15 receptor subunit a | COCCN(CC(=O)NC(CCCCN)C(=O)NC(CCSC)C(N)=O)C(=O)CN(CCCCN)C(=O)CN(CCCCN)C(=O)CN(CCOC)C(=O)CN(Cc1ccc(OC)cc1)C(=O)CNCC(C)C (centres unmarked) [IFRA3] (H-[Nleu][N(4-MeOBn)Gly][Nme][Nlys][Nlys][Nme]KM-NH2; configuration not given here) |  | can pull down a protein band corresponding to the size of IL15RA | no effects | only red cells bind to the beads, and the green cells do not bind
